Measured values taken from PMC4718634, “Murine GPRC6A Mediates Cellular Responses to L-Amino Acids, but Not Osteocalcin Variants” (PLoS ONE, 2016).
“Also recorded” adds a separate entry of the source.

Tests used:
mGPRC6A (mouse GPRC6A) = target: T1, mGPRC6A (mouse GPRC6A) (Mus musculus, UniProt Q8K4Z6); experiment: ERK1/2 phosphorylation, FlpIn-TREx-HEK293-mGPRC6A cells; type: cell-based
T1 sequence (Q8K4Z6 21-928): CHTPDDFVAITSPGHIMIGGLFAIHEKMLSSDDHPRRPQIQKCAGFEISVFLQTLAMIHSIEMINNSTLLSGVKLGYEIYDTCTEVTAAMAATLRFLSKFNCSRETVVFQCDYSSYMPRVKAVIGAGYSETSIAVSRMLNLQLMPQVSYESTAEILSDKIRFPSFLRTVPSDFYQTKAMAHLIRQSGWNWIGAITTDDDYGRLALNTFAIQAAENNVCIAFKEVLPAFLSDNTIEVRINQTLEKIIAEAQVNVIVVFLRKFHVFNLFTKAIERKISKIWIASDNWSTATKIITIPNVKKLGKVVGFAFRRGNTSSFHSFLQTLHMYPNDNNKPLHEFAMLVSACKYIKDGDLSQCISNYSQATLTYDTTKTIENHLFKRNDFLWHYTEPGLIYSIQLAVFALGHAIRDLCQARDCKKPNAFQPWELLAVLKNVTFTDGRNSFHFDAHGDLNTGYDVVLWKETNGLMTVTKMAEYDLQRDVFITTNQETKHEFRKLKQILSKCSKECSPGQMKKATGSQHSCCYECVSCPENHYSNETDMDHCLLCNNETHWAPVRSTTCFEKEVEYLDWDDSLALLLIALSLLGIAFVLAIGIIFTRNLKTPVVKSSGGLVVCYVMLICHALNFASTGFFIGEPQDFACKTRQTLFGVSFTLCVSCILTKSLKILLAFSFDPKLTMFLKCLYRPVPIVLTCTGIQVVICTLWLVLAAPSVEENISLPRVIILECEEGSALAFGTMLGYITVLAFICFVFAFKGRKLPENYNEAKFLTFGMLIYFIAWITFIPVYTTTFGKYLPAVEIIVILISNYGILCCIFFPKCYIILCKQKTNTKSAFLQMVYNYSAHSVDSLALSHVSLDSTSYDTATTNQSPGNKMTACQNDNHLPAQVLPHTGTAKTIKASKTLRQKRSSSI
Protocol: pcDNA 5/FRT/TO constructs were isogenically integrated into a FlpIn-TREx-HEK293 cell line (Life Technologies). FlpIn-TREx-HEK293-mGPRC6A and FlpIn-TREx-HEK293-hGPRC6A cells were then selected using 600 μg/ml hygromycin and 5 μg/ml blasticidin and grown in culture medium consisting of Dulbecco’s Modified Eagle Medium (DMEM), supplemented with 10% (v/v) foetal bovine serum (FBS) at 37°C in 5% CO2 and were sub-cultured in a 1:3 ratio every 3–4 days. Cells were cultured overnight in the presence of 1 μg/ml tetracycline to induce GPRC6A expression. […] 48 h after transfection, cells were selected using 3 μg/ml puromycin and grown as above.
Cells were then stimulated with ligand at various time points and incubated at 37°C in 5% CO2. 10% FBS (v/v) was used as a positive control. The reaction was terminated by removal of compounds and lysis of cells with SureFire lysis buffer (TGR Biosciences). The lysates were then treated as per the SureFire ERK1/2 kit instructions. Plates were incubated in the dark at 37°C for 1 h, then left to equilibrate with the ambient temperature before the fluorescence signal was measured using a Fusion plate reader (PerkinElmer) with standard AlphaScreen settings. Data were normalised to the maximal response elicited by 10% FBS (v/v) at the same time point.

GPRC6A = conditions: cited from earlier work
Source text: (§1) Additional interest in GPRC6A has emerged due to several studies reporting that it mediates the metabolic and endocrine effects of the de-carboxylated form of the osteoblast-derived peptide, osteocalcin (OCN).

immortalised cell lines = conditions: blocked by siRNA targeting Gprc6a; ref [12], [22]; cited from earlier work
Source text: as §1

mice [1] = conditions: injected into the peritoneal cavity; WT vs Gprc6a KO mice; ref [12]; cited from earlier work
Source text: as §1

[2] = tested on: immortalised cell lines (e.g. pancreatic β-cells); conditions: ref [12], cited from earlier work
Source text: (§2) Additional interest in GPRC6A has emerged due to several studies reporting that it mediates the metabolic and endocrine effects of the de-carboxylated form of the osteoblast-derived peptide, osteocalcin (OCN). […] By examining cell signalling events downstream of recombinantly expressed mouse GPRC6A and phenotypic assays in cell lines endogenously expressing the Gprc6a transcript, we confirmed that GPRC6A is a receptor for basic L-amino acids, but were unable to detect any effect of OCN variants, irrespective of peptide species or source. GPRC6A has emerged in recent years as an interesting target due to its putative role in med ...

mice [3] = conditions: [21], cited from earlier work
Source text: as §2

Row | Compound | stimulation of ERK1/2 phosphorylation (mGPRC6A (mouse GPRC6A); without GαqG66D, L-ornithine 1 mM, OCN variants 40 ng/ml, Fig 3B) | cAMP accumulation (GPRC6A; GPRC6A-expressing cell lines or mouse pancreatic islets, ref [8], [30]) | OCN concentration stimulating cAMP accumulation (GPRC6A; HEK293 transfected with GPRC6A, species not stated for receptor or peptide, ref [8]) [ng/mL] | OCN concentration promoting ERK1/2 phosphorylation (GPRC6A; approx., HEK293 cells expressing GPRC6A, species not stated, ref [10], [12]) [ng/mL] | GLP-1 release (immortalised cell lines) | circulating insulin levels (mice [1]) | pERK1/2 response (summary) (mGPRC6A (mouse GPRC6A); S1 Table) | insulin release ([2]; blocked by siRNA targeting Gprc6a, [22]) | insulin secretion in vitro and ex vivo ([2]; [20], [21]) | β-cell proliferation, insulin release, insulin sensitivity, energy expenditure, testosterone synthesis (mice [3]; mice, ref [20]) | β-cell proliferation, insulin sensitivity, energy expenditure (mice [3]; ref [12], [20])
1 | NCCC[C@H](N)C(=O)O [L-ornithine] | Neither L-ornithine (1 mM) nor OCN variants (40 ng/ml) stimulate ERK1/2 phosphorylation; also recorded: no detectable modulation of cAMP accumulation or phosphorylation of ERK1/2 |  |  |  |  |  |  |  |  |  | 
2 | OCN: osteoblast-derived peptide, osteocalcin; variant not specified at the place (YLYQWLGAPVPYPDPLEPRREVCELNPDCDELADHIGFQEAYRRFYGPV; UniProt P02818 52-100, looked up) |  | cAMP accumulation | 3 | 40 to 80 | OCN-mediated insulin and glucagon-like peptide (GLP)-1 release | increases circulating insulin levels in WT but not in Gprc6a KO mice | no response | OCN-mediated insulin and glucagon-like peptide (GLP)-1 release | promoting insulin secretion in vitro and ex vivo | increase pancreatic β-cell proliferation, insulin release from pancreatic islets, insulin sensitivity and energy expenditure and testosterone synthesis in the gonads in mice | can increase pancreatic β-cell proliferation, insulin sensitivity and energy expenditure in vivo
